Measured values as given in article PMC6394990, “Detailed characterization of the solution kinetics and thermodynamics of biotin, biocytin and HABA binding to avidin and streptavidin” (PLoS ONE, 2019).
Values joined by “and” are separate entries in the source; they are usually repeats but may differ in a detail not shown here. Identical values can stand only once. Like-named read-outs stand apart in the source and are kept apart here.

Experiments:
[1] = target: T1, avidin (AV) (Gallus gallus, UniProt P02701); assay: Stopped-flow association kinetics of dye-labeled biotin probes binding to avidin (F(t), rF(t); Arrhenius plots/global fitting); set-up: ln(k) / dS+ / dG+ / Eon for BFl / b of the line y = m1x+b1: unit not given here; conditions: for k(average): k (full value)
T1 construct: purchased Calbiochem (La Jolla, CA)
Description: These reactions were carried out in a buffered solution of 10 mM Tris-HCl, 100 mM KCl, 2.5 mM MgCl2 and 1 mM CaCl2 at pH 8 and only AV-BcO reactions included pH 9 and 10. The concentrations, after mixing, were of 20 nM of dye-labeled B7 probe and 260 nM, 520 nM or 1040 nM of AV; and 200 nM, 300 nM, 400 nM or 800 nM of SAV at temperatures of 10, 15, 20 and 25°C. The deglycosylation of AV (for comparative association reactions) was carried out using the provided standard protocol with endoglycosidase H [47], both with and without incubation of a denaturant solution (2% SDS and 1M 2-mercaptoethanol).
The reactions were collected with the SF instrument, described previously. The fluorescence signal was collected through a 520 nm interference filter (Oriel Corp., Stratford, CT) with a detector time constant and SF dead time of 1 μs and 1 ms, respectively. The excitation light was provided by the Coherent Ar^+ ion laser (described above) at 488 nm with […] of incident power on the reaction cuvette. The laser source was followed by the photo-elastic modulator described above with the axis oriented 45^o with respect to the electric vector of the incident light and with the half-wave modulation (50 kHz) set for 488 nm excitation. The demodulation circuitry following the photomultiplier provided a DC(t) and a rectified AC(t) which were converted to digital data by a high-speed digitizer (PCI-5122) from National Instruments (Austin, TX) with 14-bit resolution and 100 MHz bandwidth, through channels 0 and 1. The data acquisition was controlled by LabVIEW (Vr 8) software at a collection rate of 6120 data points/second and stored in spreadsheets. The AC(t) and DC(t) data were baseline corrected before obtaining the signal ratio (Eq 4) as a function of time (ρt).
The constant AGain is the instrumental amplitude gain and was evaluated by solving ρ(t) using the known steady state anisotropy (rss) of the complexes which is equivalent to the r(t) at t = ∞; and H, obtained from the equivalent grating factor (G) for the filters and photo multiplier tubes in the SF. For the probes used in here G was 0.82 and H = (1-G)/(1+G) = 0.099. Knowing Again and H, the AC(t) and DC(t) signals can be solved for r(t) and F(t) (Eqs 4 and 5) and the normalized fluorescence, F¯(t) , and corrected fluorescence anisotropy, rF¯(t), were obtained when F¯(0) and rF¯(0) were scaled to 1 at t = 0.
The F¯(t) (Eq 6) is equivalent to (I||) + 2 (I⊥) and proportional to quantum yield (QYi), molar absorptivity (εi) and to the formation or disappearance of the emitting species Xi(t); and rF¯(t) including the steady state anisotropies (rss) of each fluorescent species (Eq 7).
The possible reaction models were discriminated by the squared residuals of the observed and calculated association traces of both fluorescence and anisotropy fluorescence signals, F¯(t) and rF¯(t) , respectively.

[2] = target: T1, avidin (AV); assay: Absorbance and fluorescence emission spectra, AV complex; format: physicochemical
Description: The lifetimes (τ), steady state anisotropies (rss), time-resolved anisotropies (rt) and quantum yields (QY) of the complexes (at 20 ± 0.1°C and pH 8) were collected with a dye-labeled B7 probe concentration of 20–40 nM and 1040–2080 nM of either protein (AV or SAV) to ensure that only one binding site in the tetramer was filled with a ligand (AB1 filling model).
The QY values were obtained by using a reference fluorophore of known quantum yield and were calculated according to Parker and Rees, where the reference dye was fluorescein in 0.1N sodium hydroxide solution [46]. The emission fluorescence scans were collected from 480 nm to 700 nm with the excitation light set at 460 nm provided by the xenon arc lamp described above. These measurements were made on the AB1 complexes at high protein concentration.
Supplementary file pone.0204194.s001.docx: S1 Fig Absorbance spectra of dye-labeled B7 probes and respective complexes with AV and SAV. […] The spectra are normalized to the calculated molar absorptivies. […] The labeled probes and protein concentrations were 1 μM and 10 μM, respectively. (DOCX) Click here for additional data file.
Supplementary file pone.0204194.s002.docx: S2 Fig Fluorescence emission spectra of dye-labeled B7 and respective complexes with AV and SAV. […] The probe and protein concentrations were 20 nM and 1040 nM (AB1 filling model), respectively. (DOCX) Click here for additional data file.

[3] = AV, average over the dye-labeled B7 probes, used for AV-B7

T1 sequence (P02701 25-152): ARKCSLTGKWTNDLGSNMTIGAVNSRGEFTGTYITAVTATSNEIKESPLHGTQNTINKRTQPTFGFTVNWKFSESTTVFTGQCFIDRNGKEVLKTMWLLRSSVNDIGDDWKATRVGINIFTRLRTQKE

O=C(O)CCCC[C@@H]1SC[C@@H]2NC(=O)N[C@@H]21 [B7, d-biotin]
Eaon + (-∆H°) ([1]; AV-B): 153 ± 5.44 kJ/mol
∆G°ǂ + (-∆G°) ([1]; AV-B): 106 ± 4.18 kJ/mol
∆S°ǂ + (-∆S°) ([1]; AV-B): 41.9 ± 2.0 cal/mol°K
ΔE = Ea^Forward-Ea^Backward ([1]; AV-B7, column 3 minus 4): -97.1 ± 9.2 kJ/mol and -97.1 kJ/mol
ΔG° ^ǂ, Forward -ΔG° ^ǂ, Backward ([1]; AV-B7, column 3 minus 4): -83.7 ± 16.7 kJ/mol
ΔS° ^ǂ, Forward -ΔS° ^ǂ, Backward ([1]; AV-B7, column 3 minus 4): -11.0 ± 2.5 cal/mol°K
fold slower than 10^9 M^-1s^-1 (diffusion limited) ([1]; AV, 25°C): 54-714 X
ΔG^ǂ, Forward [1, 3]: 19.7 ± 1.3 kJ/mol and 19.7 kJ/mol
ΔS^ǂ, Forward [1, 3]: 32 cal/°K·mol
ΔS^ǂ, Forward ([1]; AV, average over the dye-labeled B7 probes, used for AV-B7, listed as B): 33.0 ± 2.0 cal/°K·mol

O=C(CCCC[C@@H]1SC[C@@H]2NC(=O)N[C@@H]21)NCCNC(=O)c1ccc(-c2c3ccc(=O)cc-3oc3cc(O)ccc23)c(C(=O)O)c1 [BFl, Biotin-4-fluorescein]
Maximum Absorbance ([2]; AV complex (AB1)): 498 nm
Maximum Emission ([2]; AV complex (AB1)): 528 nm
Abs (nm) ([2]; complex with AV): 498 nm
Emission (nm) ([2]; complex with AV): 528 nm
kon fold slower than Green's 7 × 10^7 M^-1s^-1 ([1]; 25°C and pH 8 vs 25°C and pH 5): 3.8 X
fold by which the SPR kon (ref 20) is slower than the kon of the probe ([1]; AV): ~ 9 X
kon ([1]; AV, 25°C, read-out: kon): ~1.9e+07 M⁻¹ s⁻¹
Ea^Forward ([1]; AV, pH 8): 61.1 ± 2.5 kJ/mol
ln(k) ([1]; AV, pH8, 10 (283.15 K)): 15.4
k(average) ([1]; AV, pH8, 10 (283.15 K)): 4.86E+06
kon ([1]; AV, pH8, 10 (283.15 K), k (scaled)): 4.9e+06 M⁻¹ s⁻¹
ln(k) ([1]; AV, pH8, 15 (288.15 K)): 15.8
k(average) ([1]; AV, pH8, 15 (288.15 K)): 7.60E+06
kon ([1]; AV, pH8, 15 (288.15 K), k (scaled)): 7.6e+06 M⁻¹ s⁻¹
ln(k) ([1]; AV, pH8, 20 (293.15 K)): 16.2
k(average) ([1]; AV, pH8, 20 (293.15 K)): 1.07E+07
kon ([1]; AV, pH8, 20 (293.15 K), k (scaled)): 1.07e+07 M⁻¹ s⁻¹
ln(k) ([1]; AV, pH8, 25 (298.15 K)): 16.7
k(average) ([1]; AV, pH8, 25 (298.15 K)): 1.85E+07
kon ([1]; AV, pH8, 25 (298.15 K), k (scaled)): 1.85e+07 M⁻¹ s⁻¹
ΔG^ǂ ([1]; AV, pH 8, forward): 17.6 ± 2.1 kJ/mol
ΔS^ǂ ([1]; AV, pH 8, forward): 34.9 ± 2.0 cal/°K·mol
slope (Arrhenius linear fit) ([1]; AV, ph8): -7342.9
kcal/mol (from Arrhenius slope) ([1]; AV, ph8, the values are: Ea forward): 14.6 kcal/mol
Eon for BFl ([1]; Enthalpy block, AV): 14.4
kon ([1]; pH 8, AV, pH 8, 10°C, read-out: kon): 4.86e+06 ± 600000 M⁻¹ s⁻¹
kon ([1]; pH 8, AV, pH 8, 15°C, read-out: kon): 7.6e+06 ± 2e+06 M⁻¹ s⁻¹
kon ([1]; pH 8, AV, pH 8, 20°C, read-out: kon): 1.07e+07 ± 1.6e+06 M⁻¹ s⁻¹
kon ([1]; pH 8, AV, pH 8, 25°C, read-out: kon): 1.85e+07 ± 2e+06 M⁻¹ s⁻¹
